Source: patent US20260102346A1, “LIPID COMPOSITION” (priority 2022, published 2026)

What was measured:
[1] = test system: luciferase mRNA expression in livers and injection sites (muscles); test: In vivo luciferase expression liver/muscle of LNP and LPP with different cationic lipids (Example 10); set-up: species or system Balb/c mice; conditions: 10 μg luciferase mRNA i.m., 6 hours after injection; for Liver/muscle (%, LNP): LNP preparation of the cationic lipid; for Liver/muscle (%, LPP): LPP preparation of the cationic lipid
From the text: Test of in vivo luciferase signal expression: female Balb/c mice (Beijing Vital River Laboratory Animal Technology Co., Ltd.) of 6-8 weeks of age were divided into 18 groups (M5-LNP, M5-LPP, SM102-LNP, SM102-LPP, ALC0315-LNP, ALC0315LPP, SW-II-121-LNP, SW-II-121-LPP, SW-II-122-LNP, SW-II-122-LPP, SW-II-134-3-LNP, SW-II-134-3-LPP, SW-II-138-2-LNP, SW-II-138-2-LPP, SW-II-139-2-LNP, SW-II-139-2-LPP, SW-II-140-2-LNP, and SW-II-140-2-LPP groups, with 3 mice per group). M5-LNP, M5-LPP, SM102-LNP, SM102-LPP, ALC0315-LNP, ALC0315LPP, SW-II-121-LNP, SW-II-121-LPP, SW-II-122-LNP, SW-II-122-LPP, SW-II-134-3-LNP, SW-II-134-3-LPP, SW-II-138-2-LNP, SW-II-138-2-LPP, SW-II-139-2-LNP, SW-II-139-2-LPP, SW-II-140-2-LNP, and SW-II-140-2-LPP solutions containing 10 μg of luciferase mRNA were administered by intramuscular injection (hind limbs of mice), respectively. 6 Hours after the administration, mice were injected intraperitoneally with 30 mg of a […] substrate. The bioluminescence was measured in a Xenogen IVIS-200 imaging system 15 minutes after substrate injection to evaluate the expression of the luciferase mRNA in the livers and injection sites (muscles) of the mice.

[2] = test system: luciferase mRNA expression in livers and injection sites (muscles); test: In vivo luciferase expression of LNP with M5, MC3, SW-II-121 (Example 11.1); set-up: species or system Balb/c mice; conditions: LNP preparation, DSPC, PEG-DMG, 50:10:38.5:1.5, 10 μg luciferase mRNA, 6 hours after intramuscular administration
Experimental: Test of in vivo luciferase signal expression: female Balb/c mice (Beijing Vital River Laboratory Animal Technology Co., Ltd.) of 6-8 weeks of age were divided into 3 groups (M5-LNP, MC3-LNP, and SW-II-121-LNP, with 3 mice per group). M5-LNP, MC3-LNP, and SW-II-121-LNP solutions containing 10 μg of luciferase mRNA were administered by intramuscular injection (hind limbs of mice), respectively. 6 Hours after the administration, mice were injected intraperitoneally with 30 mg of a […] substrate. The bioluminescence was measured in a Xenogen IVIS-200 imaging system 15 minutes after substrate injection to evaluate the expression of the luciferase mRNA in the livers and injection sites (muscles) of the mice.

With `CCCCCCCCC(CCCCCC)C(=O)OCCCCCCN(CCCCO)CCCCCCOC(=O)C(CCCCCC)CCCCCCCC` (stereo not shown) [ALC-0315, reference compound] the “Liver/muscle (%, LNP)” value [1] was 199.8 ± 35.8% and the “Liver/muscle (%, LPP)” value [1] was 173.2 ± 103.9%.
`CCCCCCCCCOC(=O)CCCCCCCN(CCO)CCCCCCCC(=O)OC(CCCCCCCC)CCCCCCCC` [Compound M5] was tested, and the “Liver/muscle (%, LNP)” value [1] was 10.1 ± 7.5% and the “Liver/muscle (%, LPP)” value [1] was 2.8 ± 0.3%.
`CCCCCCCCCCCOC(=O)CCCCCN(CCO)CCCCCCCC(=O)OC(CCCCCCCC)CCCCCCCC` [SM-102, reference compound] was tested, and the “Liver/muscle (%, LNP)” value [1] was 6.2 ± 3.3% and the “Liver/muscle (%, LPP)” value [1] was 2.7 ± 0.6%.
For `CCCCCCCCC(CCCCCCCC)OC(=O)CCCCCCCN(CCO)CCCCCCCC(=O)OCCc1ccc(CCCCCCC)cc1` [SW-II-121], the “Liver/muscle (%, LNP)” value [1] was 77.8 ± 48.9%, the “Liver/muscle (%, LPP)” value [1] was 52.2 ± 38.9% and the “in vivo expression (luciferase, injection site and liver)” value [2] was “significantly superior in vivo expression 6 hours after intramuscular administration to M5-LNP and MC3-LNP”.
For `CCCCCCCCC(CCCCCCCC)OC(=O)CCCCCCCN(CCO)CCCCCCCC(=O)OCc1cccc(CCCCCC)c1` [SW-II-122], the “Liver/muscle (%, LNP)” value [1] was 11.9 ± 1.2% and the “Liver/muscle (%, LPP)” value [1] was 2.8 ± 0.8%.
`CCCCCCCCCOC(=O)CCCCCCCN(CCO)CCCCCCCC(=O)OCCc1ccc(CCCC)c(CCCC)c1` [SW-II-134-3] was tested, and the “Liver/muscle (%, LNP)” value [1] was 8.2 ± 2.9% and the “Liver/muscle (%, LPP)” value [1] was 1.5 ± 0.8%.
In the case of `CCCCCCCCC(CCCCCCCC)OC(=O)CCCCCCCN(CCO)CCCCCCCC(=O)OCCCCc1ccc(CCCCC)cc1` [SW-II-138-2], the “Liver/muscle (%, LNP)” value [1] is reported as 8.2 ± 5.7% and the “Liver/muscle (%, LPP)” value [1] is reported as 3.5 ± 0.2%.
`CCCCCCCCC(CCCCCCCC)OC(=O)CCCCCCCN(CCO)CCCCCCCC(=O)OCCc1cccc(CCCC)c1` [SW-II-139-2] was tested, and the “Liver/muscle (%, LNP)” value [1] was 75.1 ± 16.1% and the “Liver/muscle (%, LPP)” value [1] was 2.0 ± 1.0%.
With `CCCCCCCCC(CCCCCCCC)OC(=O)CCCCCCCN(CCO)CCCCCCCC(=O)OCCc1ccccc1CCCC` [SW-II-140-2] the “Liver/muscle (%, LNP)” value [1] was 7.4 ± 4.0% and the “Liver/muscle (%, LPP)” value [1] was 3.3 ± 1.5%.
